# Values quoted from earlier work, collected in patent US20180318238A1, “METHODS FOR REDUCING SEQUELAE OF INTRA-DIALYTIC HYPOTENSION” (priority 2015, published 2018).
# Conditions: intravenous, dogs, all doses used; from WO 98/13036
substance,measurement,value
S-ethylisothiouronium diethylphosphate,Effect on arterial blood pressure,pronounced hypertensive effect at all doses used
